Measured values published in patent US6878751B1, “Administration of resveratrol to treat inflammatory respiratory disorders” (Imperial College of Science Technology and Medicine, priority 2000, dated 2005).

How the values were obtained:
[1] = tested on: GM-CSF release, A549 cells; test: GM-CSF release (sandwich assay) in IL-1β stimulated A549 cells; assay type: cell-based; conditions: Homo sapiens, 1 ng/ml IL-1β, read-out: EC50 for inhibition of GM-CSF release
Procedure: (§1) The human airway epithelial cell line A549 may be employed to study resveratrol inhibition of the release of IL-8 (interleukin 8) and GM-CSF (granulocyte macrophage-colony stimulating factor) by a 1 ng/ml stimulation with IL-1β (interleukin 1β). A549 cells, BEAS-2B cells and 16HBE-16o^− cells were stimulated with 1 ng/ml levels of IL-1β in the presence of resveratrol.
(§2) Cells, including the A549 cells, were cultured in Dulbecco's modified Eagle's medium (DMEM) 10% (v/v) fetal calf serum (FCS), 100 μg/ml penicillin and 100 μg/ml streptomycin. IL-8 release was measured by commercially available ELISA kit (R&D Systems).
GM-CSF release was measured in culture media by sandwich assay employing rat monoclonal capture antibody (Ab, mAb) against GM-CSF and a biotinylated rat anti-human GM-CSF mAb. The rat capture mAb against GM-CSF, diluted 1:500 in 0.1 M NaHCO3, was coated overnight at 4° C. onto 96 well plates. After washing, with wash buffer (NaCl: 145 mM, KCl: 4 mM, NaH2PO4: 10 mM, Tween-20: 0.05% (v/v), pH: 7.4) the plates were blocked by application of 10% (v/v) FCS at room temperature for 2 hours. After washing, samples and standards were added to the well plates and incubated at 4° C. overnight. […]

[2] = tested on: Steroid naive patients suffering from COPD; test: Oral or inhaled resveratrol vs inhaled glucocorticoids in COPD, steroid naive patients (Example 5); assay type: in vivo, human; conditions: 12 to 24 months
Text: Steroid naive patients suffering from different COPDs patients are selected and divided into populations according to the COPD. Chronic bronchitis populations and emphysema populations are appropriately studied. The populations are divided in terms of progression of their COPD into subpopulations early or mild, mid-stage or moderate, and advanced impairment of lung function. The study is generally patterned after the asthma studies with modifications appropriate to the clinical and histopathologic evaluation of COPD disease, and the references listed in the preceding examples may be applied as appropriate. One major difference is that the COPD study should last for 1 to 2 years or longer, because of the chronic nature of COPD. Each subpopulation is divided equally and randomly into three groups. […]
Patients are medically monitored for clinical symptoms of COPD throughout the study, including frequency and severity of hypoxemic and respiratiry acidotic exacerbations. […] In addition exhaled nitric oxide (NO) and carbon monoxide (CO) levels may be measured at more frequent intervals, such as every other week. Forced expiratory volume (FEV) and forced inspiratory volume (FIV) are also evaluated to measure airway patency as a direct measure of clinical morbidity and to determine correlation the histopathologic and other indicators of clinical disease. […]

[3] = tested on: IL-8 release, BEAS-2B cells; test: IL-8 release (ELISA) in IL-1β stimulated BEAS-2B cells; assay type: cell-based; conditions: Homo sapiens, 1 ng/ml IL-1β, read-out: EC50 for inhibition of the release of IL-8
Procedure: as §1, §2

[4] = tested on: IL-8 release, 16HBE-16o^− cells; test: IL-8 release (ELISA) in IL-1β stimulated 16HBE-16o− cells; assay type: cell-based; conditions: Homo sapiens, 1 ng/ml IL-1β, read-out: EC50 for inhibition of the release of IL-8
Procedure: as §1, §2

`Oc1ccc(/C=C/c2cc(O)cc(O)c2)cc1` [Resveratrol, 3,5,4′-trihydroxystilbene] was tested, and the EC50 [1] was 22 ± 8 µM, the “efficacy in treating COPD compared with inhaled steroids” value ([2]; oral or pulmonary resveratrol vs pulmonary budenoside) was “more effective for treating COPD than inhaled steroids” and the “systemic effects compared with inhaled glucocorticosteroids” value ([2]; oral or pulmonary resveratrol) was “fewer systemic effects”. For the same compound, the EC50 [3] was 111 ± 2.9 µM and the EC50 [4] was 8.9 ± 3.5 µM.
